Data on 2 compounds can be found in US20130184257A1, “PIPERIDINYL-SUBSTITUTED LACTAMS AS GPR119 MODULATORS” (priority 2010, published 2013).

The test system of the assay is modified version of the GPR119 receptor (94% identity to human receptor) stably expressed in HEK-293 cells. As to the kind of experiment: cAMP Production Assay (LANCE cAMP kit, TR-FRET). The format is cell-based. The conditions noted are these: for cAMP production in HEK-293 cells: HEK-293 cells expressing modified GPR119, test compounds 0.2 nM to 10 μM, one-hour incubation at ambient temperature; for Fold over baseline: increase in cAMP relative to basal levels, 1.5-fold or greater = agonist activity. In outline:
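Doxycycline-induced (1 μg/mL, overnight) HEK-293 cells expressing modified GPR119 were thawed, 2000 cells/well, and exposed to compounds (0.2 nM-10 μM final, 0.5% DMSO) for 1 h at ambient temperature in HBSS/HEPES/BSA. cAMP was measured by LANCE TR-FRET against a standard curve. Agonism was defined as ≥1.5-fold over basal.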

As to `CC(F)(F)c1nc(N2CCC(N3CC[C@H](Nc4c(F)cc(S(C)(=O)=O)cc4F)C3=O)CC2)no1` [Example 65, (S)-3-((2,6-difluoro-4-(methylsulfonyl)phenyl)amino)-1-(1-(5-(1,1-difluoroethyl)-1,2,4-oxadiazol-3-yl)piperidin-4-yl)pyrrolidin-2-one], the “cAMP production in HEK-293 cells” value was found to be 16.1 nmol and the Fold over baseline came to 2.6.
On to `CS(=O)(=O)c1cc(F)c(O[C@@H]2CCCN(C3CCN(c4noc(C(F)(F)F)n4)CC3)C2=O)cc1F` [Example 67, (R)-3-(2,5-difluoro-4-(methylsulfonyl)phenoxy)-1′-(5-(trifluoromethyl)-1,2,4-oxadiazol-3-yl)-[1,4′-bipiperidin]-2-one], for which the “cAMP production in HEK-293 cells” value came to 43.6 nmol and the Fold over baseline is 3.6.
